Experiment [1] deals with LC3/Epithelial discoidin domain-containing receptor 1 (Homo sapiens, UniProt Q08345+Q9BXW4+Q9GZQ8+Q9H492). Kind of experiment: Autophagosome tethering activity at DDR1 in human NCI-H23 cells assessed as protein degradation at 0.3 uM measured after 24 hrs by immunoblotting analysis relative to control. In kind it is cell-based.
Experiment [2] concerns NCI-H23. Kind of experiment: Inhibition of tumorigenicity in human NCI-H23 cells at 1 uM incubated for 10 days by colony formation assay. In kind it is functional, cell-based. The note with it: time 10.0 day.
Experiment [3] relates to NCI-H23. As to the kind of experiment: Inhibition of cell migration in human NCI-H23 cells at 1 uM incubated for 24 hrs by transwell assay. The format is functional, cell-based.
The subject of experiment [4] is NCI-H23. Kind of experiment: Inhibition of cell invasion in human NCI-H23 cells at 1 uM incubated for 24 hrs by transwell assay. In kind it is functional, cell-based.

Active and inactive are the calls of the source. No cut-off for these calls is given here.

`CCc1ccc(C(=O)Nc2cc(CN3CCN(CC(=O)NCCCN(C(=O)c4ccc(C)cc4)[C@@H](c4nc5cc(Cl)ccc5c(=O)n4Cc4ccccc4)C(C)C)CC3)cc(C(F)(F)F)c2)cc1C#Cc1cnc2ccnn2c1`: the Activity in experiment [1] came out at 4%. The same measure, in the same setting: next, `CCc1ccc(C(=O)Nc2cc(CN3CCN(CCCC(=O)NCCCN(C(=O)c4ccc(C)cc4)[C@@H](c4nc5cc(Cl)ccc5c(=O)n4Cc4ccccc4)C(C)C)CC3)cc(C(F)(F)F)c2)cc1C#Cc1cnc2ccnn2c1`: 6%; `CCc1ccc(C(=O)Nc2cc(CN3CCN(C(=O)COCCOCCNC(=O)COc4c(Br)cc(/C=C5\C(=O)Nc6ccc(I)cc65)cc4Br)CC3)cc(C(F)(F)F)c2)cc1C#Cc1cnc2ccnn2c1`: 9%; `CCc1ccc(C(=O)Nc2cc(CN3CCN(C(=O)CNC(=O)COc4c(Br)cc(/C=C5\C(=O)Nc6ccc(I)cc65)cc4Br)CC3)cc(C(F)(F)F)c2)cc1C#Cc1cnc2ccnn2c1`: 16%. On the same count and under the same terms, with `CCc1ccc(C(=O)Nc2cc(CN3CCN(C(=O)COCCOCCOCCNC(=O)COc4c(Br)cc(/C=C5\C(=O)Nc6ccc(I)cc65)cc4Br)CC3)cc(C(F)(F)F)c2)cc1C#Cc1cnc2ccnn2c1` the figure was 0%; with `CCc1ccc(C(=O)Nc2cc(CN3CCN(C(=O)CCCCCNC(=O)COc4c(Br)cc(/C=C5\C(=O)Nc6ccc(I)cc65)cc4Br)CC3)cc(C(F)(F)F)c2)cc1C#Cc1cnc2ccnn2c1`, 12%; with `CCc1ccc(C(=O)Nc2cc(CN3CCN(C(=O)COCCNC(=O)COc4c(Br)cc(/C=C5\C(=O)Nc6ccc(I)cc65)cc4Br)CC3)cc(C(F)(F)F)c2)cc1C#Cc1cnc2ccnn2c1`, 0%.

Take `CC#Cc1cc(C(=O)Nc2cc(CN3CCN(CCOCC(=O)NCCCN(C(=O)c4ccc(C)cc4)[C@@H](c4nc5cc(Cl)ccc5c(=O)n4Cc4ccccc4)C(C)C)CC3)cc(C(F)(F)F)c2)ccc1CC`: the inhibition result in experiment [2], in experiment [3] and in experiment [4] was “inactive” each time.

Take `CCc1ccc(C(=O)Nc2cc(CN3CCN(CCOCCOCC(=O)NCCCN(C(=O)c4ccc(C)cc4)[C@@H](c4nc5cc(Cl)ccc5c(=O)n4Cc4ccccc4)C(C)C)CC3)cc(C(F)(F)F)c2)cc1C#Cc1cnc2ccnn2c1`: in experiment [1], the Activity came out at 0%.

For `CCc1ccc(C(=O)Nc2cc(CN3CCN(CCOCCOCCOCC(=O)NCCCN(C(=O)c4ccc(C)cc4)[C@@H](c4nc5cc(Cl)ccc5c(=O)n4Cc4ccccc4)C(C)C)CC3)cc(C(F)(F)F)c2)cc1C#Cc1cnc2ccnn2c1`, the Activity in experiment [1] stood at 0%.

With `CCc1ccc(C(=O)Nc2cc(CN3CCN(C)CC3)cc(C(F)(F)F)c2)cc1C#Cc1cnc2ccnn2c1`, the inhibition result in experiment [2], in experiment [3] and in experiment [4] was “inactive” throughout. Turning to `CCc1ccc(C(=O)Nc2cc(CN3CCN(CCCCCC(=O)NCCCN(C(=O)c4ccc(C)cc4)[C@@H](c4nc5cc(Cl)ccc5c(=O)n4Cc4ccccc4)C(C)C)CC3)cc(C(F)(F)F)c2)cc1C#Cc1cnc2ccnn2c1`, in experiment [1], the Activity was found to be 13%.

As to `CCc1ccc(C(=O)Nc2cc(CN3CCN(C(=O)CCCCCCCNC(=O)COc4c(Br)cc(/C=C5\C(=O)Nc6ccc(I)cc65)cc4Br)CC3)cc(C(F)(F)F)c2)cc1C#Cc1cnc2ccnn2c1`, the Activity in experiment [1] was 9%. On the same count and under the same terms, next, `CCc1ccc(C(=O)Nc2cc(CN3CCN(CCCCCCCC(=O)NCCCN(C(=O)c4ccc(C)cc4)[C@@H](c4nc5cc(Cl)ccc5c(=O)n4Cc4ccccc4)C(C)C)CC3)cc(C(F)(F)F)c2)cc1C#Cc1cnc2ccnn2c1`: 6%.

On to `CCc1ccc(C(=O)Nc2cc(CN3CCN(C(=O)COc4c(Br)cc(/C=C5\C(=O)Nc6ccc(I)cc65)cc4Br)CC3)cc(C(F)(F)F)c2)cc1C#Cc1cnc2ccnn2c1`, for which, in experiment [1], the Activity stood at 4%. The same measure, in the same setting: with `CCc1ccc(C(=O)Nc2cc(CN3CCN(C(=O)CCCNC(=O)COc4c(Br)cc(/C=C5\C(=O)Nc6ccc(I)cc65)cc4Br)CC3)cc(C(F)(F)F)c2)cc1C#Cc1cnc2ccnn2c1` the figure was 17%.

For the compound `CCc1ccc(C(=O)Nc2cc(CN3CCN(CCCCCCCCCC(=O)NCCCN(C(=O)c4ccc(C)cc4)[C@@H](c4nc5cc(Cl)ccc5c(=O)n4Cc4ccccc4)C(C)C)CC3)cc(C(F)(F)F)c2)cc1C#Cc1cnc2ccnn2c1`, the Activity in experiment [1] came to 0%.

Source of the values: ChEMBL document CHEMBL5506046, “Discovery of LLC355 as an Autophagy-Tethering Compound for the Degradation of Discoidin Domain Receptor 1” (J Med Chem, 2024).
